“And” between values parts separate entries of the source, which are not always exact repeats. Identical values can stand only once. Like-named read-outs stand apart in the source and are kept apart here.
How the values were obtained:
[1] = system: CCRF-CEM human lymphoblastic leukemia cells; test: cells; conditions: read-out: Cytotoxicity IC50, CCRF-CEM
CCRF-CEM/Taxol = test: In vitro cytotoxicity, XTT assay, taxol-resistant subline; conditions: Homo sapiens, CCRF-CEM, 72 h, read-out: Cytotoxicity IC50, CCRF-CEM/Taxol
[2] = system: Human colon carcinoma HCT-116 cells; test: cells
[3] = system: human mammary carcinoma MX-1 xenograft; test: Antitumor therapeutic effect against MX-1 xenograft in nude mice; type: in vivo; conditions: for Therapeutic effect: complete tumor remission (CR), mice with CR/total and day / Maximal body-weight loss (%) / Therapeutic effect: tumor relapse: i.v. injection; for Therapeutic effect: complete tumor remission (CR), mice with CR/total and day: treatment from Day 8, dose and schedule per compound as in Table 3 (30-150 mg/kg); for Maximal body-weight loss (%) / Therapeutic effect: tumor relapse: dose and schedule per compound as in Table 3; for Remark (dose tolerability): BO-1053 70 mg/kg Q2Dx5, BO-1063 and BO-1065 100 mg/kg QDx3, i.v.
Experimental: Athymic nude mice bearing the nu/nu gene were obtained from NCI, Frederick, Md. and used for all human tumor xenografts. Male nude mice 6 weeks or older weighing 20-24 g or more were used. Compounds were administered via the tail vein for i.v. injection or infusion as described previously.^64 A typical formulation for chemotherapeutic studies for each drug was dissolved in DSMO to make a 25 mg/ml fresh solution, 0.4 ml of this solution was mixed with 0.3 ml of Tween 80, plus 1.3 ml to make 2 ml of 5 mg/ml solution. Bolus injection volume was 0.1-0.2 ml per mouse. Tumor volume was assessed by measuring length×width×height (or width) by using a caliper. For tumor-bearing nude mice during the course of the experiment, the body weight refers to total weight minus the weight of the tumor. All animal studies were conducted in accordance with the guidelines for the National Institute of Health Guide for the Care and Use of Animals and the protocol approved by the Institutional Animal Care and Use Committee.
The therapeutic effects of a drug against human tumor xenografts in nude mice, under the optimal therapeutic conditions but without any lethality due to drug toxicity, the following degrees of therapeutic effects are defined and calculated by the following formula: […]
where • T0 is the initial tumor size (in mm^3) at beginning of drug treatment; • Tc is tumor size of untreated control group on a given date; and • Tx is tumor size of the drug treated group on a given date.
[formula] • Tumor disappearance (complete remission or CR) is defined by the effect where • [Tx=0] for a period of time (in days) for a proportion of animals (NCR/N), where • N is the total number of animals in the group, and NCR is the number of mice in the group that achieved CR. • Tumor relapse is quantitatively calculated by • [The Day tumor relapsed (Drelp)—The Day CR achieved (DCR)] (Eq. 3) for a proportion of animals (Nrelp/N) where N is the total number of animals in the group, and Nrelp is the number of the mice in the group that relapsed. • The log cell kill (LCK) of the tumor tissue after a given chemotherapy that reached CR is estimated by: LCK=log [2^(Tumor remission in days/Tumor doubling time in days)] (Eq. 4)
Athymic nude mice bearing the nu/nu gene were used for human breast tumor MX-1 xenograft (FIGS. 3 and 4) and human brain glioma U87 GM xenograft (FIG. 5). Nude mice were obtained from National Cancer Institute, Frederick, Md. Male mice 6 weeks old or older weighing 22 g or more were used for experiments with subcutaneous tumor inoculation as described previously.^67 Drug was administrated via the tail vein by iv injection. Tumor volumes were assessed by measuring length×width×height (or width) by using caliper. Vehicle used was 20 μL DMSO in 180 μL saline. All animal studies were conducted in accordance with the guidelines of the U.S. National Institutes of Health Guide for the Care and Use of Animals and the protocol approved by the Institutional Animal Care and Use Committee.

[4] = system: Human mammary carcinoma (MX-1) tumor cells; test: In vitro cytotoxicity, SRB assay, 72-hr incubation; conditions: Homo sapiens, 72 h, read-out: Cytotoxicity IC50, MX-1
prostate cancer (PC3) = test: cells; conditions: Homo sapiens, read-out: Cytotoxicity IC50, PC3
lung cancer H460 = test: cells; conditions: Homo sapiens, NCI-H460, read-out: Cytotoxicity IC50, H460
lung cancer H1299 = test: cells; conditions: Homo sapiens, NCI-H1299, read-out: Cytotoxicity IC50, H1299
[5] = HCT-116, 72 h, read-out: Cytotoxicity IC50, HCT-116
[6] = HCT-116, read-out: Cytotoxicity IC50, HCT-116

O=C(Nc1ccc(N(CCCl)CCCl)cc1)Nc1cc(CO)cc(Nc2c3ccccc3nc3ccccc23)c1 [BO-1037, 1-[3-(acridin-9-ylamino)-5-hydroxymethylphenyl]-3-{4-[bis(2-chloroethyl)amino]phenyl}urea] gave an IC50 ([1]; 72 h) of 60 nM, an IC50 (CCRF-CEM/Taxol) of 17100 nM and an IC50 [2, 5] of 220 nM. The “Therapeutic effect: complete tumor remission (CR), mice with CR/total and day” value (from here on “Therapeutic effect … with CR/total and day”) [3] was “achieved CR in parts of the mice and 2/3 CR on D23, 25”, the “Maximal body-weight loss (%)” value [3] was 12% and the “Therapeutic effect: tumor relapse” value [3] was 2/3 relapsed on D40, 40. It also gave an IC50 [4] of 370 nM.

In the case of Cc1cccc2c(Nc3cc(CO)cc(NC(=O)Nc4ccc(N(CCCl)CCCl)cc4)c3)c3ccccc3nc12 [BO-1050, 1-{4-[bis(2-chloroethyl)amino]phenyl}-3-[3-hydroxymethyl-5-(4-methylacridin-9-ylamino)phenyl]urea], the IC50 (CCRF-CEM/Taxol) is reported as 390 nM, the IC50 [2, 5] is reported as 260 nM and the “Therapeutic effect … with CR/total and day” value [3] is reported as “achieved CR in parts of the mice and 2/2 CR on D16, 18”. For the same compound, the “Maximal body-weight loss (%)” value [3] was 9%, the “Therapeutic effect: tumor relapse” value [3] was “No relapse on D26” and the IC50 [4] was 120 nM.

Cc1ccc(NC(=O)Nc2ccc(N(CCCl)CCCl)cc2)cc1Nc1c2cccc(C)c2nc2c(C(=O)NCCN(C)C)cccc12 [BO-1053, 9-[5-(3-{4-[bis(2-chloroethyl)amino]phenyl}ureido)-2-methyl-phenylamino]-5-methyl-acridine-4-carboxylic acid (2-dimethylaminoethyl)amide] showed an IC50 ([1]; 72 h) of 10 nM, an IC50 (CCRF-CEM/Taxol) of 180 nM and an IC50 [2, 5] of 60 nM. The “Remark (dose tolerability)” value [3] was “Too high dose”, the “Therapeutic effect … with CR/total and day” value [3] was “achieved complete tumor remission” and the IC50 [4] was 60 nM.

O=C(Nc1cc(CO)cc(Nc2c3ccccc3nc3ccccc23)c1)Oc1ccc(N(CCCl)CCCl)cc1 [BO-1062, [3-(acridin-9-ylamino)-5-hydroxymethylphenyl]carbamic acid 4-[bis(2-chloroethyl)amino]phenyl ester] was tested, and the IC50 ([1]; 72 h) was 80 nM, the IC50 (CCRF-CEM/Taxol) was 140 nM and the IC50 [2, 5] was 570 nM. For the same compound, the “Therapeutic effect … with CR/total and day” value [3] was “achieved complete tumor remission and 1/1 CR on D22”, the “Maximal body-weight loss (%)” value [3] was 17% and the IC50 [4] was 100 nM.

Cc1cccc2c(Nc3cc(CO)cc(NC(=O)Oc4ccc(N(CCCl)CCCl)cc4)c3)c3ccccc3nc12 [BO-1063, [3-hydroxymethyl-5-(4-methylacridin-9-ylamino)phenyl]carbamic acid 4-[bis(2-chloroethyl)-amino]phenyl ester] was tested, and the IC50 ([1]; 72 h) was 70 nM, the IC50 (CCRF-CEM/Taxol) was 100 nM and the IC50 [2, 5] was 440 nM. For the same compound, the “Remark (dose tolerability)” value [3] was “Too high dose” and the IC50 [4] was 80 nM.

Cc1ccc(Nc2c3ccccc3nc3c(C)cccc23)cc1NC(=O)Oc1ccc(N(CCCl)CCCl)cc1 [BO-1064, [2-methyl-5-(4-methylacridin-9-ylamino)phenyl]-carbamic acid 4-[bis(2-chloroethyl)amino]phenyl ester] gave an IC50 ([1]; 72 h) of 130 nM, an IC50 (CCRF-CEM/Taxol) of 170 nM and an IC50 [2, 5] of 610 nM. For the same compound, the “Therapeutic effect … with CR/total and day” value [3] was “achieved complete tumor remission and 1/1 CR on D22”, the “Maximal body-weight loss (%)” value [3] was “Died of” and the IC50 [4] was 290 nM.

For CCOC(=O)Nc1cc(COC(=O)Oc2ccc(N(CCCl)CCCl)cc2)cc(Nc2c3ccccc3nc3ccccc23)c1 [BO-1065, carbonic acid 3-(acridin-9-yl-amino)-5-ethoxycarbonylaminobenzyl ester 4-[bis(2-chloroethyl)amino]phenyl ester], the IC50 (CCRF-CEM/Taxol) was 510 nM, the IC50 [2, 5] was 640 nM and the “Remark (dose tolerability)” value [3] was “Too high dose”. It also gave an IC50 [4] of 90 nM.

Work on COc1cc(NC(=O)Oc2ccc(N(CCCl)CCCl)cc2)cc(Nc2c3ccccc3nc3ccccc23)c1 [BO-1066, [3-(acridin-9-ylamino)-5-methoxyphenyl]carbamic acid 4-[bis(2-chloroethyl)amino]phenyl ester] yielded an IC50 ([1]; 72 h) of 210 nM, an IC50 (CCRF-CEM/Taxol) of 310 nM and an IC50 [2, 5] of 1710 nM. For the same compound, the “Therapeutic effect … with CR/total and day” value [3] was “achieved complete tumor remission and 1/1 CR on D22”, the “Maximal body-weight loss (%)” value [3] was 13% and the IC50 [4] was 340 nM.

With Cc1cc(NC(=O)Nc2ccc(N(CCCl)CCCl)cc2)cc(Nc2c3ccccc3nc3ccccc23)c1 [BO-1079, 1-[3-(acridin-9-ylamino)-5-methylphenyl]-3-{4-[bis(2-chloroethyl)amino]phenyl}urea] the IC50 ([1]; 72 h) was 140 nM, the IC50 (CCRF-CEM/Taxol) was 380 nM and the IC50 [2, 5] was 800 nM. The “Therapeutic effect: tumor growth suppression” value ([3]; 75 mg/kg, QDx8, i.v., 1/1 mouse) was 1/1, >99% tumor, the “Maximal body-weight loss (%)” value [3] was 9% and the IC50 [4] was 530 nM.

Work on O=C(CCN1CCCCC1)Nc1ccc(NC(=O)Nc2ccc(N(CCCl)CCCl)cc2)cc1 [BO-2057] yielded an IC50 (prostate cancer (PC3)) of 2280 nM, an IC50 (lung cancer H460) of 1580 nM and an IC50 (lung cancer H1299) of 3030 nM.

For CCN(CC)CCC(=O)Nc1ccc(NC(=O)Nc2ccc(N(CCCl)CCCl)cc2)cc1 [BO-2073, N-(4-(3-(4-(Bis(2-chloroethyl)amino)phenyl)ureido)-phenyl)-3-(diethylamino)-propanamide], the IC50 [1] was 300 nM, the IC50 (prostate cancer (PC3)) was 2470 nM and the IC50 (lung cancer H460) was 1830 nM. For the same compound, the IC50 [2, 6] was 2090 nM and the IC50 (lung cancer H1299) was 10300 nM.

O=C(CCN1CCOCC1)Nc1ccc(NC(=O)Nc2ccc(N(CCCl)CCCl)cc2)cc1 [BO-2074] was tested, and the IC50 [1] was 1060 nM, the IC50 (prostate cancer (PC3)) was 9740 nM and the IC50 (lung cancer H460) was 3950 nM. It also gave an IC50 [2, 6] of 7020 nM and an IC50 (lung cancer H1299) of 15200 nM.

With O=C(CCN1CCCC1)Nc1ccc(NC(=O)Nc2ccc(N(CCCl)CCCl)cc2)cc1 [BO-2075] the IC50 [1] was 280 nM, the IC50 (prostate cancer (PC3)) was 3480 nM and the IC50 (lung cancer H460) was 1030 nM. For the same compound, the IC50 [2, 6] was 1480 nM and the IC50 (lung cancer H1299) was 6430 nM.

In the case of CN(C)CCC(=O)Nc1cccc(NC(=O)Nc2ccc(N(CCCl)CCCl)cc2)c1 [BO-2091, N-(3-(3-(4-(bis(2-chloroethyl)amino)-phenyl)ureido)phenyl)-3-(dimethylamino)-propanamide], the IC50 [1] is reported as 520 nM, the IC50 (prostate cancer (PC3)) is reported as 13500 nM and the IC50 (lung cancer H460) is reported as 16800 nM. It also gave an IC50 [2, 6] of 3280 nM and an IC50 (lung cancer H1299) of 8990 nM.

O=C(CN1CCCCC1)Nc1ccc(NC(=O)Nc2ccc(N(CCCl)CCCl)cc2)cc1 [BO-2092, N-(4-(3-(4-(bis(2-chloroethyl)amino)phenyl)ureido)-phenyl)-2-(piperidin-1-yl)-acetamide] showed an IC50 [1] of 310 nM, an IC50 (prostate cancer (PC3)) of 2240 nM and an IC50 (lung cancer H460) of 1050 nM. The IC50 [2, 6] was 1500 nM and the IC50 (lung cancer H1299) was 2520 nM.

With O=C(CN1CCCC1)Nc1ccc(NC(=O)Nc2ccc(N(CCCl)CCCl)cc2)cc1 [BO-2093] the IC50 [1] was 260 nM, the IC50 (prostate cancer (PC3)) was 3520 nM and the IC50 (lung cancer H460) was 950 nM. It also gave an IC50 (lung cancer H1299) of 3410 nM.

Compound CCN(CC)CC(=O)Nc1ccc(NC(=O)Nc2ccc(N(CCCl)CCCl)cc2)cc1 [BO-2094, N-(4-(3-(4-(Bis(2-chloroethyl)amino)phenyl)ureido)-phenyl)-2-(diethylamino)-acetamide] has an IC50 (prostate cancer (PC3)) of 3570 nM, an IC50 (lung cancer H460) of 930 nM and an IC50 [2, 6] of 1700 nM. The IC50 (lung cancer H1299) was 3430 nM.

For CN(C)CC(=O)Nc1ccc(NC(=O)Nc2ccc(N(CCCl)CCCl)cc2)cc1 [BO-2095], the IC50 [1] was 290 nM, the IC50 (prostate cancer (PC3)) was 7330 nM and the IC50 (lung cancer H460) was 1210 nM. It also gave an IC50 [2, 6] of 2540 nM and an IC50 (lung cancer H1299) of 5360 nM.

O=C(CN1CCOCC1)Nc1ccc(NC(=O)Nc2ccc(N(CCCl)CCCl)cc2)cc1 [BO-2096] showed an IC50 [1] of 1130 nM, an IC50 (prostate cancer (PC3)) of 16000 nM and an IC50 (lung cancer H460) of 4740 nM. The IC50 [2, 6] was 6670 nM and the IC50 (lung cancer H1299) was 18600 nM.

In the case of O=C(CN1CCC(N2CCCCC2)CC1)Nc1ccc(NC(=O)Nc2ccc(N(CCCl)CCCl)cc2)cc1 [BO-2117], the IC50 [1] is reported as 1140 nM, the IC50 (prostate cancer (PC3)) is reported as 7240 nM and the IC50 (lung cancer H460) is reported as 14900 nM. It also gave an IC50 [2, 6] of 4240 nM and an IC50 (lung cancer H1299) of 14400 nM.
